The values below come from patent US9205124B2, “Compounds for enzyme inhibition” (Onyx Therapeutics, Inc., priority 2005, dated 2015).

The first experiment relates to proteasome CT-L activity. Nature of the experiment: Proteasome CT-L activity in blood lysates of mice one hour after oral dosing (LLVY-AMC cleavage). It counts as in vivo. As to conditions: 20 mg/kg PO, one hour post-dosing, vs vehicle-dosed cohort. The protocol:
Compounds were formulated in 10% PS80/NaCitrate (pH 3) vehicle and administered to mice orally (PO) (3 animals/cohort). One hour post-dosing, the animals were sacrificed and the following tissues harvested: blood, brain, adrenal gland, heart and liver. Whole blood (˜200 μl) was washed twice with PBS and lysed by hypotonic shock (300 μl 50 mM Tris pH 8, 5 mM EDTA). Blood lysates were stored at −80° C. until assayed. Blood lysates were clarified by centrifugation in a microcentrifuge. The CT-L specific activity of proteasome in each lysate was evaluated by determining: a) the protein concentration by modified Bradford assay with bovine gamma globulin as a standard; and b) the rate of cleavage of the fluorogenic proteasome substrate LLVY-AMC. The percent proteasome activity for the analog-treated animals was calculated by dividing of the average specific activity for each analog-dosed cohort by the average specific activity of the vehicle-dosed cohort. Percent proteasome inhibition was calculated by subtracting percent proteasome activity from 100.
`COC[C@H](NC(=O)c1ccon1)C(=O)N[C@@H](COC)C(=O)N[C@@H](CC(C)C)C(=O)[C@@]1(C)CO1` [Compound (083)]: the “proteasome CT-L inhibition” value was above 80%.

Turning to `COC[C@H](NC(=O)c1cc(C)on1)C(=O)N[C@@H](Cc1cscn1)C(=O)N[C@@H](CC(C)C)C(=O)[C@@]1(C)CO1` [Compound (039)], the “proteasome CT-L inhibition” value is above 75%.

Turning to `COC[C@H](NC(=O)c1cc(C)no1)C(=O)N[C@@H](COC)C(=O)N[C@@H](CC(C)C)C(=O)[C@@]1(C)CO1` [Compound (085)], the “proteasome CT-L inhibition” value was above 50%.

Consider `Cc1cc(C(=O)N[C@@H](Cc2ccccn2)C(=O)N[C@@H](Cc2ccccc2)C(=O)N[C@@H](CC(C)C)C(=O)[C@@]2(C)CO2)no1` [Compound (055)], for which the “proteasome CT-L inhibition” value is above 80%.

Turning to `COC[C@H](NC(=O)c1cc(C)on1)C(=O)N[C@H](C(=O)N[C@@H](CC(C)C)C(=O)[C@@]1(C)CO1)C(C)C` [Compound (029)], the “proteasome CT-L inhibition” value is above 70%.

Still in this experiment, the particulars now being: 40 mg/kg PO, one hour post-dosing, vs vehicle-dosed cohort.
As to `CC(C)C[C@H](NC(=O)[C@H](Cc1ccccc1)NC(=O)[C@@H](NC(=O)c1cc(CN2CCOCC2)on1)C(C)C)C(=O)[C@@]1(C)CO1` [Compound (061)], the “proteasome CT-L inhibition” value is on record as above 80%.

Turning to `COC[C@H](NC(=O)c1cc(C)on1)C(=O)N[C@@H](Cc1ccccc1)C(=O)N[C@@H](CC(C)C)C(=O)[C@@]1(C)CO1` [Compound (010)], the “proteasome CT-L inhibition” value was above 90%.

On to `CC(C)C[C@H](NC(=O)c1cc(CN2CCOCC2)on1)C(=O)N[C@@H](Cc1ccccc1)C(=O)N[C@@H](CC(C)C)C(=O)[C@@]1(C)CO1` [Compound (023)], for which the “proteasome CT-L inhibition” value was above 80%.

In the case of `COCC[C@H](NC(=O)c1cc(C(C)C)on1)C(=O)N[C@@H](Cc1ccccc1)C(=O)N[C@@H](CC(C)C)C(=O)[C@@]1(C)CO1` [Compound (068)], the “proteasome CT-L inhibition” value was above 70%.
